Measurements from paper PMC6125496 (Antimicrobial Agents and Chemotherapy, 2018).
Values after ≈ are worked out from the molar mass of the structure shown. Read-outs that look alike come from different tables or passages of the source. Non-standard residues stand in square brackets, D forms with d. Residues, ends and D or L forms follow the SMILES beside them. Dab(3S-OH) = NC[C@H](O)[C@H](N)C(=O)O; Phe(2-F) = N[C@@H](Cc1ccccc1F)C(=O)O; ΔZArg = N=C(N)NCC/C=C(\N)C(=O)O; dOrn = NCCC[C@@H](N)C(=O)O; Dab = NCC[C@H](N)C(=O)O

Columns and labels:
Citrobacter freundii MAU = conditions: Ambler class C carbapenem resistant; AmpC overexpressed + TEM-3
Source text: (§1) Reference strains are from the German Collection of Microorganisms and Cell Cultures (DSMZ), the American Type Culture Collection (ATCC), the National Collection of Type Cultures (NCTC), and the Medical and Molecular Microbiology, Faculty of Science and Medicine, University of Fribourg, Switzerland.

[1] = tested on: Polymyxin B-resistant E. coli (2)
Source text: as §1

[2] = tested on: Acinetobacter baumannii ATCC 19606; assay: microbe, parasite or virus in culture
Source text: as §1

[3] = tested on: Ciprofloxacin-resistant E. coli (19); assay: microbe, parasite or virus in culture
Source text: as §1

[4] = tested on: Ciprofloxacin-resistant K. pneumoniae (27); assay: microbe, parasite or virus in culture
Source text: as §1

[5] = tested on: Citrobacter freundii (16); assay: microbe, parasite or virus in culture
Source text: as §1

[6] = tested on: Citrobacter freundii DSM 30039; assay: microbe, parasite or virus in culture
Source text: as §1

[7] = tested on: Citrobacter kozeri DSM 4595; assay: microbe, parasite or virus in culture
Source text: as §1

[8] = tested on: Enterobacter aerogenes DSM 30053; assay: microbe, parasite or virus in culture
Source text: as §1

[9] = tested on: Enterobacter cloacae (13); assay: microbe, parasite or virus in culture
Source text: as §1

[10] = tested on: Enterobacter cloacae DSM 14563; assay: microbe, parasite or virus in culture
Source text: as §1

[11] = tested on: Enterococcus faecalis DSM 2570; assay: microbe, parasite or virus in culture
Source text: as §1

[12] = tested on: Enterococcus faecium DSM 20477; assay: microbe, parasite or virus in culture
Source text: as §1

Escherichia coli (101) = assay: microbe, parasite or virus in culture; conditions: 101 clinical isolates
Source text: as §1

[13] = tested on: Escherichia coli ATCC 25922; assay: microbe, parasite or virus in culture
Source text: as §1

[14] = tested on: Escherichia coli BAA-2469; assay: microbe, parasite or virus in culture
Source text: as §1

[15] = tested on: Escherichia coli BAA-2471; assay: microbe, parasite or virus in culture
Source text: as §1

[16] = tested on: Gentamicin-resistant K. pneumoniae (16); assay: microbe, parasite or virus in culture
Source text: as §1

[17] = tested on: Klebsiella pneumoniae (56); assay: microbe, parasite or virus in culture
Source text: as §1

[18] = tested on: Klebsiella pneumoniae ATCC 43816; assay: microbe, parasite or virus in culture
Source text: as §1

[19] = tested on: Klebsiella pneumoniae ATCC BAA-1904; assay: microbe, parasite or virus in culture
Source text: as §1

[20] = tested on: Klebsiella pneumoniae ATCC BAA-1905; assay: microbe, parasite or virus in culture
Source text: as §1

[21] = tested on: Klebsiella pneumoniae NCTC 13439; assay: microbe, parasite or virus in culture
Source text: as §1

[22] = tested on: Klebsiella pneumoniae NCTC 13442; assay: microbe, parasite or virus in culture
Source text: as §1

[23] = tested on: Klebsiella pneumoniae NCTC 13443; assay: microbe, parasite or virus in culture
Source text: as §1

[24] = tested on: Pseudomonas aeruginosa DSM 1117; assay: microbe, parasite or virus in culture
Source text: as §1

[25] = tested on: Serratia marcescens DSM 17174; assay: microbe, parasite or virus in culture
Source text: as §1

[26] = tested on: Staphylococcus aureus ATCC 29213; assay: microbe, parasite or virus in culture
Source text: as §1

[27] = tested on: Staphylococcus epidermidis ATCC 12228; assay: microbe, parasite or virus in culture
Source text: as §1

[28] = tested on: Stenotrophomonas maltophilia ATCC 13637; assay: microbe, parasite or virus in culture
Source text: as §1

[29] = tested on: Streptococcus pneumoniae DSM 2134; assay: microbe, parasite or virus in culture
Source text: as §1

[30] = tested on: human renal proximal tubular epithelial cells (HRPTEpiC); assay: Multiplexed HRPTEpiC cytotoxicity assay (cell viability, KIM-1, HSP27)
Description: The multiplexed cytotoxicity assay on human renal proximal tubule epithelial cells (HRPTEpiC) was conducted by Eurofins Panlabs (Eurofins Panlabs, Inc., St. Charles, MO) by using an image-based high content analysis (HCA) technique where cells were fixed and stained with nuclear dye to visualize nuclei and fluorescently labeled antibodies to detect drug-induced cellular injury and cellular stress arising from oxidative and chemical stress. Cells were seeded into 384-well plates and grown in RPMI 1640, 10% fetal bovine serum (FBS), 2 mM L-alanyl-L-glutamine, and 1 mM sodium pyruvate in a humidified atmosphere of 5% CO2 at 37°C. […] Compounds were serially diluted 3.16-fold and assayed over 10 concentrations in a final assay concentration of 0.5% dimethyl sulfoxide (DMSO) from 100 μM to 3.7 nM. At the same time, a time zero untreated cell plate was generated. After a 48-h incubation period, cells were fixed and stained with fluorescently labeled antibodies and nuclear dyed to allow visualization of nuclei, injured cells, and stressed cells. Injured cells were detected using a KIM-1 (kidney injury molecule 1) antibody. Stressed cells were detected using an anti-HSP27 (heat shock protein 27) antibody. Cell proliferation was measured by the signal intensity of the incorporated nuclear dye. The cell proliferation assay output was referred to as the relative cell count. To determine the cell proliferation endpoint, the cell proliferation data output was transformed to percentage of control (POC) using the following formula: POC = relative cell count in compound wells/relative cell count in vehicle wells × 100. The signal intensity of the incorporated cellular stress and injury measurements were normalized with the relative cell count from each well. Automated fluorescence microscopy was carried out using a Molecular Devices ImageXpress micro-imager, and images were collected with a 4× objective.

[31] = 19 ciprofloxacin-resistant isolates
[32] = 27 ciprofloxacin-resistant isolates
[33] = Ambler class B carbapenemase, NDM-1
[34] = 16 gentamicin-resistant isolates

## N=C(N)NCC/C=C(\NC(=O)[C@H](CCCCN)NC(=O)[C@H](Cc1ccccc1F)NC(=O)[C@@H]1CCCN1C(=O)[C@@H](CCCN)NC(=O)CNC(=O)[C@H](CCN)NC(=O)[C@@H](NC(=O)[C@@H](N)CCCCN)[C@@H](O)CN)C(=O)O [NOSO-502] (H-K[Dab(3S-OH)][Dab]G[dOrn]P[Phe(2-F)]K[ΔZArg]-OH)
Citrobacter freundii MAU
  MIC: 1 µg/mL
[1]; Polymyxin B-resistant (2)
  MIC range: 4 to 8 µg/mL
[2]; ATCC 19606
  MIC: >64 µg/mL
[3]; Ciprofloxacin-resistant (19)
  MIC range: 2 to 32 µg/mL
[4]; Ciprofloxacin-resistant (27)
  MIC range: 0.5 to 16 µg/mL
[5]
  MIC range: 1 to 4 µg/mL
[6]; DSM 30039
  MIC: 2 µg/mL (≈ 1.85 µM)
[7]; DSM 4595
  MIC: 2 µg/mL (≈ 1.85 µM)
[8]; DSM 30053
  MIC: 2 µg/mL (≈ 1.85 µM)
[9]; 13
  MIC range: 1 to 4 µg/mL
[10]; DSM 14563
  MIC: 2 µg/mL (≈ 1.85 µM)
[11]; DSM 2570
  MIC: >64 µg/mL
[12]; DSM 20477
  MIC: 64 µg/mL (≈ 59.4 µM)
Escherichia coli (101)
  MIC 50%: 4 µg/mL (≈ 3.71 µM)
  MIC 90%: 8 µg/mL (≈ 7.42 µM)
[13]; ATCC 25922
  MIC: 4 µg/mL (≈ 3.71 µM)
[14]; BAA-2469
  MIC: 2 µg/mL (≈ 1.85 µM)
[15]; BAA-2471
  MIC: 4 µg/mL (≈ 3.71 µM)
[16]; Gentamicin-resistant (16)
  MIC range: 0.5 to 2 µg/mL
[17]; 56
  MIC range: 0.5 to 16 µg/mL
[18]; ATCC 43816
  MIC: 1 µg/mL (≈ 0.927 µM)
[19]; ATCC BAA-1904
  MIC: 2 µg/mL (≈ 1.85 µM)
[20]; ATCC BAA-1905
  MIC: 1 µg/mL (≈ 0.927 µM)
[21]; NCTC 13439
  MIC: 1 µg/mL (≈ 0.927 µM)
[22]; NCTC 13442
  MIC: 1 µg/mL (≈ 0.927 µM)
[23]; NCTC 13443
  MIC: 1 µg/mL (≈ 0.927 µM)
[24]; DSM 1117
  MIC: >64 µg/mL
[25]; DSM 17174
  MIC: 4 µg/mL (≈ 3.71 µM)
[26]; ATCC 29213
  MIC: 1 µg/mL (≈ 0.927 µM)
[27]; ATCC 12228
  MIC: 0.25 µg/mL (≈ 0.232 µM)
[28]; ATCC 13637
  MIC: 16 µg/mL (≈ 14.8 µM)
[29]; DSM 2134
  MIC: 64 µg/mL (≈ 59.4 µM)
[30]; tested up to 100 μM
  concentration inducing a significant (5-fold) increase of KIM-1 level: > 100 µM

## polymyxin B [PMB]
Citrobacter freundii MAU
  MIC: 0.5 µg/mL
[1]; 2 polymyxin B-resistant isolates
  MIC range: 4 to 32 µg/mL
[2]; reference strain
  MIC: 0.5 µg/mL
[3]; [31]
  MIC 50%: 0.5 µg/mL
  MIC 90%: 1 µg/mL
  MIC range: 0.5 to 32 µg/mL
[4]; [32]
  MIC 50%: 0.5 µg/mL
  MIC 90%: 1 µg/mL
[5]; 16 clinical isolates
  MIC 50%: 0.5 µg/mL
  MIC 90%: 1 µg/mL
  MIC range: 0.25 to 1 µg/mL
[6]; reference strain
  MIC: 0.5 µg/mL
[7]; reference strain
  MIC: 0.25 µg/mL
[8]; reference strain
  MIC: 0.5 µg/mL
[9]; 13 clinical isolates
  MIC 50%: 0.5 µg/mL
  MIC 90%: 8 µg/mL
  MIC range: 0.5 to 16 µg/mL
[10]; reference strain
  MIC: 1 µg/mL
[11]; reference strain
  MIC: >32 µg/mL
[12]; reference strain
  MIC: >32 µg/mL
Escherichia coli (101)
  MIC 50%: 0.5 µg/mL
  MIC 90%: 1 µg/mL
[13]; reference strain
  MIC: 0.5 µg/mL
[14]; [33]
  MIC: 0.25 µg/mL
[15]; [33]
  MIC: 0.25 µg/mL
[16]; [34]
  MIC 50%: 0.5 µg/mL
  MIC 90%: 1 µg/mL
  MIC range: 0.5 to 1 µg/mL
[17]; 56 clinical isolates
  MIC 50%: 0.5 µg/mL
  MIC 90%: 4 µg/mL
  MIC range: 0.25 to 32 µg/mL
[18]; reference strain
  MIC: 1 µg/mL
[19]; Ambler class A carbapenemase, KPC-3
  MIC: 0.5 µg/mL
[20]; Ambler class A carbapenemase, KPC-2
  MIC: 0.5 µg/mL
[21]; Ambler class B carbapenemase, VIM-1
  MIC: 0.5 µg/mL
[22]; Ambler class D carbapenemase, OXA-48
  MIC: 0.5 µg/mL
[23]; [33]
  MIC: 0.5 µg/mL
[24]; reference strain
  MIC: 1 µg/mL
[25]; reference strain
  MIC: >32 µg/mL
[26]; reference strain
  MIC: 16 µg/mL
[27]; reference strain
  MIC: 16 µg/mL
[28]; reference strain
  MIC: 1 µg/mL
[29]; reference strain
  MIC: >32 µg/mL
[30]; read-out: cytotoxicity IC50 (cell viability), 48-h incubation
  IC50: 11.8 µM
[30]; tested up to 100 μM
  concentration inducing a significant (5-fold) increase of HSP27 level: 9.7 µM
  concentration inducing a significant (5-fold) increase of KIM-1 level: 12.1 µM
